Like-named read-outs stand apart in the source and are kept apart here.
What was measured:
μ opioid receptor = biological target: T1, μ opioid receptor (Homo sapiens, UniProt P35372); experiment: Competition binding assay on membranes of CHO cells expressing μ opioid receptor, [3H]-labeled ligand
T1 construct: expressed in transfected cells; host or cells: CHO cells (membranes)
Summary of the method: (§1)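 CHO membranes (20–30 μg protein) incubated with [3H]-labeled ligand at 1–2 nM and test compounds, 30 min at 30° C; nonspecific binding with 1 μM corresponding ligand. Filtered on GF/C, washed with 50 mM Tris-HCl pH 7.4, scintillation-counted. IC50 converted to Ki by Ki=IC50/(1+[L]/Kd).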

κ opioid receptor = biological target: T2, κ opioid receptor (Homo sapiens, UniProt P41145); experiment: Competition binding assay on membranes of CHO cells expressing κ opioid receptor, [3H]-labeled ligand
T2 construct: expressed in transfected cells; host or cells: CHO cells (membranes)
Summary of the method: as §1

[1] = Table 3-1, 1 μM concentration of compounds
[2] = Table 4-1, 1 μM concentration of compound

COc1cccc(C2(O)CCCCC2CN(C)C)c1 (stereo not shown) [Tramadol, reference compound]
inhibition at 1 µM (μ opioid receptor; 0.5 h, Table 5-1, 1 μM concentration of compound, read-out: μOR Combination rate (%)): 6 ± 0.4% | inhibition at 10 µM (μ opioid receptor; Table 1-1, 10 μM concentration of compound, mean ± SD of three measurements, read-out: μOR Binding rate (%)): 6 ± 0.4% | inhibition at 1 µM (μ opioid receptor; Table 2-1, 1 μM concentration of compound, read-out: μOR Binding rate (%)): 6 ± 0.4% | μOR Binding rate (%) (μ opioid receptor; [1]): 6.0% | μOR Binding rate (%) (μ opioid receptor; [2]): 6.0 ± 0.4% | inhibition at 10 µM (κ opioid receptor; 0.5 h, Table 1-1, 10 μM concentration of compound, read-out: κOR Binding rate (%)): 0% | inhibition at 1 µM (κ opioid receptor; 0.5 h, Table 2-1, 1 μM concentration of compound, read-out: κOR Binding rate (%)): 0% | inhibition at 1 µM (κ opioid receptor; 0.5 h, Table 5-1, 1 μM concentration of compound, read-out: κOR Combination rate (%)): 0% | κOR Binding rate (%) (κ opioid receptor; [1]): 0% | κOR Binding rate (%) (κ opioid receptor; [2]): 0%
